Source: article PMC6630718, “Discovery of Novel UV-Filters with Favorable Safety Profiles in the 5-Arylideneimidazolidine-2,4-dione Derivatives Group” (Molecules, 2019)

What was measured:
[1] = test system: estrogen-dependent MCF-7 breast cancer cell line; assay: Estrogenic activity: MCF-7 proliferation, crystal violet assay; type: cell-based, human; conditions: 5 μM, 120 h, estrogen- and phenol red-free medium
Protocol: To determine estrogenic activity of tested compounds their influence on estrogen-dependent MCF-7 breast cancer cell line proliferation was investigated. Cells were seeded into 24-wells plates in density of 40,000 per well. After 24 h incubation, cells were washed twice with PBS and fresh, estrogen- and phenol red-free medium (DMEM low-glucose; 2,5% Charcoal Stripped FBS; 2 mM glutamine; Sigma Aldrich, Darmstadt, Germany) was added. […] After 120 h incubations, cells proliferation was determined with crystal violet assay. Briefly, cells were washed with PBS and fixed with 3,7% formaldehyde. Then, crystal violet solution was added for 10 minutes. After incubation, solution was removed and cells were washed five times with PBS. Crystal violate was extracted from cells using destaining solution (1,33% citric acid, 1,09% sodium citrate in water/methanol (1:1) solution) and absorbance of the solution was determined at 570 nm (A570). Proliferation rate was determined by dividing the A570 of experimental wells by the A570 of control wells × 100%.

[2] = In vitro stability in mouse liver microsomes; type: in vitro ADME
Summary of the method: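 Compound (20 µM) with mouse liver microsomes (0.8 mg/mL), potassium phosphate pH 7.4, NADPH-regenerating system, 37 °C for 15–60 min; parent remaining by UPLC/MS, two repeats. t1/2 from ln % remaining versus time; Clint = (incubation volume/protein) × 0.693/t1/2.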

O=C(c1ccc(O)cc1O)c1ccc(O)cc1O [BP-2, benzophenone-2, reference compound]
stimulation of MCF-7 proliferation [1]: over 60%
t ½ ([2]; mouse liver microsomes 0.8 mg/mL, 20 µM compound, NADPH-regenerating system, 37 °C): 1.1 h
Clint ([2]; mouse liver microsomes, calculated from t1/2): 13 µL/min/mg
